# Measured values as given in ChEMBL document CHEMBL4477222, “Discovery of Novel Thiophene-Based, Thumb Pocket 2 Allosteric Inhibitors of the Hepatitis C NS5B Polymerase with Improved Potency and Physicochemical Profiles” (J Med Chem, 2016).
# The source made the active and inactive calls. The rule behind the calls is not given here.
# What was measured:
# Cytochrome P450 3A4 = Cytochrome P450 3A4 (Homo sapiens, UniProt P08684); assay: Drug metabolism in human liver S9 fraction assessed as CYP3A4-mediated metabolite formation after 1 hr; format: ADME, subcellular; details: s9, 1 h
# [1] = tested on: NS3 protease (Hepacivirus C), C1KIQ2 [T54A]; assay: Inhibition of telaprevir-resistant HCV NS3 protease T54A mutant; details: Hepacivirus hominis
# [2] = Half life in dog at 3 mg/kg, po; format: ADME, organism-based, Canis lupus familiaris; details: in vivo
# [3] = Ratio of drug level in liver to kidney in Sprague-Dawley rat at 10 mg/kg, po; format: ADME, organism-based; details: in vivo
# [4] = tested on: NS3 protease (Hepacivirus C), C1KIQ2 [R155T]; assay: Inhibition of telaprevir-resistant HCV NS3 protease R155T mutant; details: Hepacivirus hominis
# [5] = Cytotoxicity against human W11.8 cells assessed as reduction in cell viability after 4 days; format: cell-based
# [6] = tested on: Nonstructural protein 5A (Hepatitis C virus), Q5L478 [UNDEFINED MUTATION]; assay: Inhibition of BMS-790052-resistant HCV genotype 1a NS5A Q30H mutant; details: Hepatitis C virus subtype 1a
# [7] = Clearance in Fischer 344 rat at 1 mg/kg, iv through bolus administration; format: ADME, organism-based; details: in vivo
# Homo sapiens = organism: Homo sapiens; assay: Inhibition of human DNA polymerase-gamma by radiometric assay
# [8] = tested on: Nonstructural protein 5A (Hepatitis C virus), Q5L478 [UNDEFINED MUTATION]; assay: Inhibition of BMS-790052-resistant HCV genotype 1b NS5A L31V mutant; details: Hepatitis C virus subtype 1b
# [9] = Volume of distribution in steady state in monkey at 1 mg/kg, iv through bolus administration; format: ADME, organism-based, Macaca mulatta; details: rhesus monkey, in vivo, read-out: Vdss
# [10] = Oral bioavailability in Sprague-Dawley rat at 3 mg/kg; format: ADME, organism-based; details: in vivo
# [11] = Solubility of the compound in FaSSIF at pH 6.3; format: physicochemical
# [12] = tested on: Nonstructural protein 5A (Hepatitis C virus), Q5L478 [Y93C]; assay: Inhibition of BMS-790052-resistant HCV genotype 1a NS5A Y93C mutant; details: Hepatitis C virus subtype 1a
# [13] = Metabolic stability in rat hepatocytes assessed as compound remaining at 10 uM after 2 hrs; format: ADME, cell-based, Hepatocyte; details: read-out: Stability
# Hepatocyte = assay: Change in CYP3A4 mRNA levels in hepatocytes (unknown origin); format: ADME, cell-based
# [14] = Metabolic stability in dog liver microsomal S9 fraction assessed as compound remaining at 1 uM after 2 hrs in presence of NADPH; format: ADME, subcellular, Canis lupus familiaris; details: read-out: Stability
# [15] = Drug level in rat plasma; format: ADME, cell-free
# [16] = tested on: Nonstructural protein 5A (Hepatitis C virus), Q5L478 [UNDEFINED MUTATION]; assay: Inhibition of BMS-790052-resistant HCV genotype 1a NS5A L31V mutant; details: Hepatitis C virus subtype 1a
# [17] = Half life in Sprague-Dawley rat at 3 mg/kg, po; format: ADME, organism-based; details: in vivo
# [18] = molecular target: Nonstructural protein 5A (Hepatitis C virus) (UniProt Q5L478); assay: Ratio of EC50 for HCV genotype 1b NS5A infected in human l389lucubi- neo/NS3-375.1-containing Huh7ET cells in presence of 40% human serum to EC50 for HCV genotype 1b NS5A infected in human l389lucubi- neo/NS3-375.1-containing Huh7ET cells; details: Hepatitis C virus subtype 1b
# [19] = Half life in Fischer 344 rat at 3 mg/kg; format: ADME, organism-based; details: in vivo
# [20] = tested on: NS3 protease (Hepatitis C virus subtype 1b), Q0ZMF1 [A156S]; assay: Inhibition of telaprevir-resistant HCV NS3 protease A156S mutant; details: Hepacivirus hominis
# [21] = Protein binding in dog plasma at 1 uM; format: ADME, cell-free, Canis lupus familiaris; details: read-out: PPB (converted)
# [22] = Cmax in Fischer 344 rat at 3 mg/kg, po; format: ADME, organism-based; design: dose 3 mg/kg, route oral; details: in vivo
# [23] = Clearance in monkey at 1 mg/kg, iv through bolus administration; format: ADME, organism-based, Macaca mulatta; details: rhesus monkey, in vivo
# MDR1 = assay: Efflux ratio of permeability from basolateral to apical side over apical to basolateral side in MDCK cells expressing MDR1; format: ADME, cell-based, Canis lupus familiaris; details: dog
# [24] = Solubility of the compound in potassium phosphate buffer at pH 7; format: physicochemical
# [25] = molecular target: DNA polymerase beta (Homo sapiens) (UniProt P06746); assay: Inhibition of human DNA polymerase-beta by fluorescence/radiometric assay
# [26] = Protein binding in monkey plasma at 1 uM; format: ADME, cell-free, Macaca mulatta; details: rhesus monkey, read-out: PPB (converted)
# [27] = tested on: NS3 protease (Hepacivirus C), C1KIQ2 [V36M]; assay: Inhibition of telaprevir-resistant HCV NS3 protease V36M mutant; details: Hepacivirus hominis
# [28] = Protein binding in dog liver at 1 uM; format: ADME, tissue-based, Canis lupus familiaris; details: read-out: PB (converted)
# [29] = Metabolic stability in human liver microsomal S9 fraction assessed as compound remaining at 1 uM after 2 hrs in presence of NADPH; format: ADME, subcellular; details: read-out: Stability
# [30] = Metabolic stability in rat liver microsomal S9 fraction assessed as compound remaining at 1 uM after 2 hrs in presence of NADPH/UDPGA; format: ADME, subcellular; details: read-out: Stability
# MDCK = assay: Ratio of permeability in MDCK cells expressing OATP1B1 to permeability in wild type MDCK cells; format: ADME, cell-based, Canis lupus familiaris; details: dog
# [31] = Efflux ratio of permeability from basolateral to apical side over apical to basolateral side in human Caco2 cells; format: ADME, cell-based; details: Caco-2
# [32] = tested on: Hepatitis C virus subtype 1b; assay: Inhibition of HCV genotype 1b NS5B assessed as suppression of sub-genomic RNA levels at 0.5 times IC50 after 96 hrs in presence of human interferon alpha2a and ribavirin by luciferase reporter gene assay
# [33] = tested on: Nonstructural protein 5A (Hepatitis C virus), Q5L478 [UNDEFINED MUTATION]; assay: Inhibition of BMS-790052-resistant HCV genotype 1b NS5A Y93H mutant; details: Hepatitis C virus subtype 1b
# [34] = Solubility of the compound in FeSSIF at pH 5.2; format: physicochemical
# [35] = molecular target: RNA-directed RNA polymerase (Hepacivirus hominis, UniProt O39930, L419M); assay: Inhibition of HCV genotype 1a NS5B L419M mutant; design: species or system Hepatitis C virus subtype 1a
# [36] = tested on: Nonstructural protein 5A (Hepatitis C virus), Q5L478 [UNDEFINED MUTATION]; assay: Inhibition of BMS-790052-resistant HCV genotype 1a NS5A Q30R mutant; details: Hepatitis C virus subtype 1a
# [37] = AUC (0 to infinity) in Sprague-Dawley rat at 3 mg/kg, po; format: ADME, organism-based; design: dose 3 mg/kg, route oral, time infinity; details: in vivo
# [38] = Oral bioavailability in dog at 3 mg/kg; format: ADME, organism-based, Canis lupus familiaris; details: in vivo
# [39] = Cmax in Sprague-Dawley rat at 3 mg/kg, po; format: ADME, organism-based; design: dose 3 mg/kg, route oral; details: in vivo
# [40] = Half life in dog at 1 mg/kg, iv through bolus administration; format: ADME, organism-based, Canis lupus familiaris; details: in vivo
# [41] = molecular target: CYP450 (family, isoform not stated) (Homo sapiens, UniProt P04798+P05177+P05181+P08684+P10632+P10635+P11509+P11712+P13584+P20813+P20815+P20853+P24462+P24903+P33260+P33261+P51589+P78329+P98187+Q02928+Q08477+Q16678+Q16696+Q5TCH4+Q6VVX0+Q7Z449+Q8TAV3+Q96SQ9+Q9HB55); assay: Inhibition of CYP450 (unknown origin); format: ADME, protein assay
# Cytochrome P450 2E1 = Cytochrome P450 2E1 (Homo sapiens, UniProt P05181); assay: Inhibition of CYP2E1 (unknown origin); format: ADME
# [42] = Protein binding in rat liver at 1 uM; format: ADME, tissue-based; details: read-out: PB (converted)
# [43] = Oral bioavailability in Fischer 344 rat at 3 mg/kg; format: ADME, organism-based; details: in vivo
# [44] = tested on: Nonstructural protein 5A (Hepatitis C virus), Q5L478 [UNDEFINED MUTATION]; assay: Inhibition of BMS-790052-resistant HCV genotype 1a NS5A L31M mutant; details: Hepatitis C virus subtype 1a
# Cytochrome P450 2E1, sequence (P05181 whole entry): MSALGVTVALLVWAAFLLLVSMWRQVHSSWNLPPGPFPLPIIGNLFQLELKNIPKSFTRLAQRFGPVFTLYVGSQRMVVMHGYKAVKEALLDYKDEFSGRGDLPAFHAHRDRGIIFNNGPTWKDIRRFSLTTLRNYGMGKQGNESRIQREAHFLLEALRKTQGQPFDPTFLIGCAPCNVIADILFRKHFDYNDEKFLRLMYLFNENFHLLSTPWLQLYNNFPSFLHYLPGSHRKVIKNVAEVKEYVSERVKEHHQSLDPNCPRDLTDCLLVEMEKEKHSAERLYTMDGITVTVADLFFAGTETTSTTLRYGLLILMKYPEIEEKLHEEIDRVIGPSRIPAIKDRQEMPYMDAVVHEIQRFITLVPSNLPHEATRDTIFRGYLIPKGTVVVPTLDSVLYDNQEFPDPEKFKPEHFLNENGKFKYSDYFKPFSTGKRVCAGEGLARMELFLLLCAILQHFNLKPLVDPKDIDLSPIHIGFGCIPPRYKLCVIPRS
# Cytochrome P450 3A4, sequence (P08684 whole entry): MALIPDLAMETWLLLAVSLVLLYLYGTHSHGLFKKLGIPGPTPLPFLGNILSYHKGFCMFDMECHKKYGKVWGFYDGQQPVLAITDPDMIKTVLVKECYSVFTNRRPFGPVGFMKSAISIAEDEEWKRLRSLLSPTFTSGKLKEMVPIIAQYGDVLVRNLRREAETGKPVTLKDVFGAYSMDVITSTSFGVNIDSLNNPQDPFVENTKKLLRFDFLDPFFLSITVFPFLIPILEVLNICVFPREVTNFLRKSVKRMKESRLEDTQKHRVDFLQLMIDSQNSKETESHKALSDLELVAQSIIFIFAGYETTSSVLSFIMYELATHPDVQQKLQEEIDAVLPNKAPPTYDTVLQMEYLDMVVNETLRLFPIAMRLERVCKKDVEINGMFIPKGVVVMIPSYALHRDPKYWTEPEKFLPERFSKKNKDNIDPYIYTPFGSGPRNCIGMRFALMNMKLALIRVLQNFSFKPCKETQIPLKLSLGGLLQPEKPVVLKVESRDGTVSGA
smiles,measurement,setting,value
CC(C)(C)C#Cc1cc(N(CC(=O)N2CCOCC2)C(=O)[C@H]2CC[C@H](C)CC2)c(C(=O)O)s1,Drug metabolism,Cytochrome P450 3A4,< 5%
same,inhibition,[1],Active
same,half-life,[2],6.6 h
same,Ratio,[3],10
same,inhibition,[4],Active
same,CC50 at 96 h,[5],> 20 µM
same,inhibition,[6],Active
same,clearance,[7],13.8 mL/min/kg
same,inhibition,Homo sapiens,inactive
same,inhibition,[8],Active
same,Vd,[9],0.23 L/kg
same,bioavailability,[10],69%
same,solubility,[11],1700 µg/mL
same,inhibition,[12],Active
same,"remaining at 2 h, 10 µM",[13],100%
same,Activity,Hepatocyte,Non-Toxic
same,"remaining at 2 h, 1 µM",[14],82%
same,Drug uptake,[15],Active
same,inhibition,[16],Active
same,half-life,[17],3.04 h
same,Ratio EC50,[18],10 to 20
same,half-life,[19],2.1 h
same,inhibition,[20],Active
same,fraction unbound at 1 µM,[21],0.025
same,Cmax,[22],240 ng/mL
same,clearance,[23],9.9 mL/min/kg
same,efflux ratio,MDR1,9.8
same,solubility,[24],1800 µg/mL
same,inhibition,[25],inactive
same,fraction unbound at 1 µM,[26],0.023
same,inhibition,[27],Active
same,fraction unbound at 1 µM,[28],0.14
same,"remaining at 2 h, 1 µM",[29],76%
same,"remaining at 2 h, 1 µM",[30],79%
same,Ratio,MDCK,3
same,efflux ratio,[31],14
same,inhibition,[32],Active
same,inhibition,[33],Active
same,solubility,[34],800 µg/mL
same,EC50,[35],0.24 µM
same,inhibition,[36],Active
same,AUC(0-inf),[37],8860 ng·h/mL
same,bioavailability,[38],57.3%
same,Cmax,[39],1730 ng/mL
same,half-life,[40],9.8 h
same,IC50,[41],> 40 µM
same,IC50,Cytochrome P450 2E1,14 µM
same,fraction unbound at 1 µM,[42],0.162
same,bioavailability,[43],6.5%
same,inhibition,[44],Active
